Assay results as given in ChEMBL document CHEMBL1121648, “Metabolism of 1,3-bis(2-chloroethyl)-1-nitrosourea by rat hepatic microsomes” (J Med Chem, 1981).

What was measured:
[1] = species: Rattus norvegicus; assay: NADPH-dependent metabolic rate was measured in rat liver microsomal preparations; assay type: functional
[2] = Half-life for disappearance of compound measured at 37 degree C and pH 7.4 in rat liver microsomal preparations; assay type: ADME; details: liver microsomes

SMILES	Rate (nM (mg of protein)-1) [1]	half-life [2] [h]
O=C(NCCCl)NCCCl	54	
O=NN(CCCl)C(=O)NCCCl [CARMUSTINE]	56	1.5
